Where “and” joins values, the source holds several entries; their conditions need not be identical. Equal entries are not always repeated.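 48-hour exposure; five concentrations; linearly interpolated endpoints. GI50 is the concentration that inhibits growth by half. TGI: concentration producing complete growth inhibition.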
Assays:
Assay in all cases: DTP human tumour cell line panel, 48 h
HCC-2998 colon = system: HCC-2998 colon
CCRF-CEM leukemia = system: CCRF-CEM leukemia
SR leukemia = system: SR leukemia
KM12 colon = system: KM12 colon
LOX IMVI melanoma = system: LOX IMVI melanoma
UACC-257 melanoma = system: UACC-257 melanoma
OVCAR-4 ovarian = system: OVCAR-4 ovarian
EKVX NSCLC = system: EKVX NSCLC
MOLT-4 leukemia = system: MOLT-4 leukemia
HCT-116 colon = system: HCT-116 colon

Structure (SMILES) | TGI (HCC-2998 colon) | TGI (CCRF-CEM leukemia) | TGI (SR leukemia) | TGI (KM12 colon) | TGI (LOX IMVI melanoma) | TGI (UACC-257 melanoma) | TGI (OVCAR-4 ovarian) | TGI (EKVX NSCLC) | TGI (MOLT-4 leukemia) | TGI (HCT-116 colon) | GI50 (HCC-2998 colon) | GI50 (CCRF-CEM leukemia) [µM] | GI50 (SR leukemia) | GI50 (KM12 colon) | GI50 (LOX IMVI melanoma) [µM] | GI50 (UACC-257 melanoma) [µM] | GI50 (OVCAR-4 ovarian) [µM] | GI50 (EKVX NSCLC) | GI50 (MOLT-4 leukemia) | GI50 (HCT-116 colon)
O=S(=O)(c1cccc(C(F)(F)F)c1)N1c2ccccc2-n2cccc2C1c1cccnc1 (stereo not given) | 43.7 µM | > 51.6 µM | 71.9 µM | > 100 µM | > 68.7 µM | > 54.6 µM | > 48.4 µM | > 100 µM | > 56.6 µM | > 52 µM |  |  |  |  |  |  |  |  |  | 
CS(=O)(=O)c1nccc(-c2c(-c3cccc(OCc4ccc(F)cc4)c3)nc3sccn23)n1 | 5.54 µM | > 100 µM | > 100 µM | 7.61 µM | > 100 µM | 14.8 µM | > 100 µM | > 100 µM | > 100 µM | > 100 µM | 2.28 µM | 8.73 | 5.45 µM | 2.95 µM | 4.7 | 5 | 11.4 | 26.4 µM | 2.64 µM | 5.65 µM
COc1ccccc1-c1cc2c3c(nc4ccccc42)C(=O)c2cccnc2-c3n1 | 30.6 µM | > 100 µM | > 100 µM | 33.2 µM | 4.89 µM | 22.8 µM | 38.7 µM | 45.4 µM | > 100 µM | 14.6 µM | 14.8 µM | 4.94 | > 100 µM | 9.88 µM | 2.13 | 7.22 | 13.5 | 14.8 µM | > 42.6 µM | 4.89 µM
COc1ccc(OC)c(/C=C/[N+](=O)[O-])c1 | 10.4 µM and 7.54 µM | 14.6 µM and 5.38 µM | 1.85 µM and 3.92 µM | 7.27 µM and 27.4 µM | 12.6 µM and 3.78 µM | 11.7 µM and 8.28 µM | 8.89 µM and 8.72 µM | 6.18 µM and 16.7 µM | 5.31 µM and 9.59 µM | 12.7 µM and 6.06 µM | 4.24 µM and 4.38 µM | 1.18 | 0.467 µM and 0.865 µM | 2.6 µM and 13.3 µM | 1.09 | 3.19 |  | 2.42 µM and 6.47 µM | 1.1 µM and 2.52 µM | 
COC(=O)c1cnc2nc(N3CCOCC3)[nH]n2c1=O | > 100 µM | > 100 µM | > 100 µM | > 100 µM | > 100 µM | > 100 µM | > 100 µM | > 100 µM | > 100 µM | > 100 µM |  |  |  |  |  |  |  |  |  | 
COc1ccc(-c2cc3c4c(nc5ccccc5c4c2)CC(c2cc(OC)c(OC)c(OC)c2)O3)cc1 (stereo not given) | > 100 µM | > 100 µM | > 100 µM | > 100 µM | 6.81 µM | > 100 µM |  | > 100 µM | > 100 µM | 4.15 µM | 4.32 µM | > 100 | 2.08 µM | 3.78 µM | 1.92 | 3.93 |  | 5.01 µM | > 100 µM | 1.31 µM
COc1ccc(C2C3=C(NC(=O)C2C#N)c2ccc4ccccc4c2OCC3)cc1 (stereo not given) |  | > 100 µM | > 100 µM | > 100 µM | 37.5 µM | 82.8 µM | > 100 µM | 50.1 µM | > 100 µM | > 100 µM |  | > 100 | > 100 µM | > 100 µM | 18.6 | 36.5 | > 100 | 15.8 µM | > 100 µM | 35.8 µM
COC1/C=C/O[C@@]2(C)Oc3c(C)c(O)c4c(O)c(cc(O)c4c3C2=O)NC(=O)/C(C)=C\C=C\[C@H](C)C(O)[C@@H](C)[C@@H](O)[C@@H](C)[C@H](OC(C)=O)[C@@H]1C (stereo not given in full) | 29.2 µM and 49.2 µM | 4.07 µM and 32.6 µM | 20.6 µM and 42.7 µM | 35.4 µM and 97.2 µM | 26.1 µM and 29.5 µM | 32.7 µM and 32.9 µM | 30.6 µM and 28.3 µM | 27.8 µM and 136 µM | 36.3 µM and 62.5 µM | 25.4 µM and 26.1 µM | 15.8 µM | 0.504 | 3.92 µM | 19 µM |  | 17.5 | 16 | 14.2 µM and 58.6 µM | 7.42 µM | 12.2 µM and 12.5 µM
COc1cc2c(cc1OC)C1c3ccccc3C(C#N)(C2)N(C(=O)c2ccccc2)C1O (stereo not given) | > 100 µM | > 100 µM | > 100 µM | > 100 µM | > 100 µM | > 100 µM |  | > 100 µM | > 100 µM | > 100 µM |  |  |  |  |  |  |  |  |  | 
COc1ccc2c(c1)O/C(=C\c1cccc(OCC(=O)Nc3nc4ccccc4s3)c1)C2=O | > 100 µM | 1.25 µM | 2.42 µM | > 100 µM | 1.05 µM | > 100 µM | > 100 µM | > 100 µM | 20.2 µM | > 100 µM | > 100 µM | 0.419 | 0.749 µM | 9.61 µM | 0.328 | > 100 | 22.3 | 29 µM | 3.33 µM | 24.1 µM
CCN(CC)c1ccc(NC(C(=O)c2ccccc2)c2ccccc2)cc1 (stereo not given) | 8.62 µM | 13.5 µM | > 100 µM | 15.7 µM | 3 µM | 22.1 µM | 46.2 µM | 14.4 µM | 24.4 µM | 6.6 µM | 2.81 µM | 2.29 | 0.594 µM | 4.03 µM | 1.57 | 4.86 | 4.78 | 3.59 µM | 0.696 µM | 2.58 µM
CN(C)CCNC(=O)c1ccc2ccc3cccnc3c2n1 | 25.4 µM | > 100 µM | 30.7 µM | 95.6 µM | 49.8 µM | 35.4 µM | > 69.2 µM | 48.3 µM | 32.3 µM | 27.2 µM |  |  |  |  |  |  |  |  |  | 
O=C1Nc2ccc(Cl)cc2/C1=C\c1c(-c2ccc(F)cc2)nc2ccccn12 | 5.1 µM | 7.24 µM | > 100 µM | 4.61 µM | 4.89 µM | 16.3 µM | 7.23 µM | 58.1 µM | 8.13 µM |  | 2.01 µM | 2.31 | 2.92 µM | 2.04 µM | 2.06 | 3.11 | 2.3 | 3.08 µM | 2.89 µM | 
CC(=O)O[C@]1(C(C)=O)CC[C@H]2[C@@H]3C[C@H](C)C4=CC(=O)C=C[C@]4(C)[C@@]3(F)[C@@H](O)C[C@@]21C | > 100 µM | > 100 µM | > 100 µM | > 100 µM | > 100 µM | > 100 µM | 90.8 µM | > 100 µM | > 100 µM | > 100 µM |  |  |  |  |  |  |  |  |  | 
